Assay results taken from patent US9676756B2 (PORTOLA PHARMACEUTICALS, INC., priority 2012, dated 2017).
pIC50: −log10 of the molar value. Where two headings read alike, the source gives them in different places.

Experiments:
Format in all cases: biochemical
[1] = target: T1, full length active recombinant SYK enzyme (Homo sapiens, UniProt P43405); test: SYK tyrosine phosphorylation activity, LANCE TR-FRET kinase assay; details: 1 nM SYK, 100 μM ATP, 1 hour at room temperature; for pIC50: read-out: Syk IC50 % Inhibition
T1 construct: full length active recombinant SYK enzyme (Millipore, CA); purchased Millipore
Experimental: Potency of candidate molecules for inhibiting Syk tyrosine phosphorylation activity is assessed by measuring the ability of a test compound to inhibit Syk-mediated tyrosine phosphorylation of a Syk-specific substrate.
SYK tyrosine phosphorylation activity is measured using the LANCE™ Technology developed by Perkin Elmer Life and Analytical Sciences (Boston, Mass.). LANCE™ refers to homogeneous time resolved fluorometry applications using techniques such as time-resolved fluorescence resonance energy transfer assay (TR-FRET) (see generally for procedures in Perkin Elmer Application Note—How to Optimize a Tyrosine Kinase Assay Using Time Resolved Fluorescence-Based LANCE Detection, wwww.perkinelmer.com/lifesciences). The assay principle involves detection of a phosphorylated substrate using energy transfer from a phosphospecific europium-labeled antibody to streptavidin-allophycocyanin as an acceptor.
To test the ability of candidate molecules to inhibit SYK tyrosine phosphorylation activity, molecules are reconstituted in 30% DMSO and serially diluted 1:3 with the final dilution containing DMSO in the absence of the candidate molecule. The final DMSO concentration in the assay is 3%. Kinase assays are performed as a two part reaction. The first reaction is a kinase reaction that comprises a candidate molecule, full length active recombinant SYK enzyme (Millipore, CA) and biotin-labeled SYK-specific substrate biotin-[…]-OH. The second reaction involves termination of the kinase reaction and the simultaneous addition of the detection reagents-europium-labeled anti-phosphotyrosine reagent (Eu-W1024-PY100, Perkin Elmer, Boston, Mass.) and Streptavidin-Allophycocyanin detection reagent (SA-APC, Prozyme, CA). The kinase reaction is performed in a black U-bottom 96-well microtitre plate. The final reaction volume is 50 μL and contains a final concentration of 1 nM active SYK enzyme, 550 nM SYK-substrate, and 100 μM ATP diluted in a buffer containing 50 mM Tris pH 7.5, 5 mM MgCl2, and 1 mM DTT. The reaction is allowed to proceed for 1 hour at room temperature. The stop buffer contains 100 mM Tris pH 7.5, 300 mM NaCl2, 20 mM EDTA, 0.02% Brij35, and 0.5% BSA. The detection reagents are added to the reaction mixture at the following dilutions—1:500 for Eu-W1024-PY100 and 1:250 for SA-APC. The kinase reaction is terminated by the addition of 50 μL stop buffer containing the detection reagents. The detection is allowed to proceed for 1 hr at room temperature. Detection of the phosphorolated substrate in the absence and presence of inhibitors is measured in the TR-FRET instrument, Analyst HT (Molecular Probes, Sunnyvale, Calif.) and the condition for measurements are set up using CriterionHost Release 2.0 (Molecular Probes, Sunnyvale, Calif.). The settings used are a follows: excitation 360 nm, emission 665-7.5 nm, beam splitter 350 nm 50/50, flash 100 pulses, delay 60 us, integration 400 us, z-height 2 mm. Inhibition of SYK-tyrosine kinase activity is calculated as the maximum response observed in the presence of inhibitor, compared to that in the absence of inhibitor. IC50s are derived by non-linear regression analysis.

JAK1 = target: T2, JAK1 (Homo sapiens, UniProt P23458); test: JAK tyrosine phosphorylation activity, Z'-LYTE FRET kinase assay; details: catalytic domain recombinant kinase, Tyr6 peptide; for pIC50: read-out: JAK1 IC50 % Inhibition
T2 construct: 5 μl of catalytic domain recombinant Kinase enzyme+Tyr peptide substrate (Invitrogen, CA); purchased Invitrogen
Experimental: (§1) JAK and SYK tyrosine phosphorylation activity is measured using the Z'-LYTE™ Technology developed by Invitrogen Corporation (Carlsbad, Calif.). For JAK1, JAK2 and JAK3 the Z'-LYTE™ Kinase Assay Kit-Tyr6 Peptide (part number PV4122) was used. The Z'-LYTE™ biochemical assay employs a fluorescence resonance energy transfer (FRET) coupled-enzyme format and is based on the differential sensitivity of phosphorylated and non-phosphorylated peptides to proteolitic cleavage. The assay uses a synthetic peptide substrate that is labelled with a donor fluorophore (coumarin) and an acceptor fluorophore (fluorescein) that make up a FRET pair. In the primary reaction (the Kinase Reaction), the kinase transfers the γ-phosphate of ATP to a single tyrosine residue on the substrate, while the presence of a kinase inhibitor in the primary reaction suppresses phosphorylation. In the secondary reaction (the Development Reaction), a site-specific protease (the Development Reagent) is added. The development buffer quenches the Kinase Reaction, while the protease recognizes and cleaves non-phosphorylated Z'-LYTE™ peptide substrate. Cleavage disrupts FRET between the donor and acceptor fluorophores on the non-phosphorylated substrate, while uncleaved, phosphorylated substrate maintains FRET.
(§2) To test the ability of candidate molecules to inhibit JAK tyrosine phosphorylation activity, molecules are reconstituted in 100% DMSO and serially diluted 1:10 in polypropylene v-bottom microtiter plates. The candidate molecules are then diluted 1:25 into kinase buffer and 2.5 μl transferred into duplicate wells of a 384 well low volume black microtiter assay plate (Corning, USA). The final DMSO concentration in the assay is 1%. The kinase reaction contains 2.5 μl of a candidate molecule, 5 μl of catalytic domain recombinant Kinase enzyme+Tyr peptide substrate (Invitrogen, CA) and 2.5 μl ATP (Invitrogen, CA). The kinase reaction is allowed to precede for 1 hour at room temperature. The protease reaction is initiated by the addition of 5 μl Development Reagent (Invitrogen, CA). After 1 hour incubation at room temperature the fluorescence is measured using a FlexStation plate reader (Molecular Devices, Sunnyvale, Calif.). The reader settings used are as follows: Fluorescence mode, endpoint, top read, excitation 400 nm, emission 445 nm and 520 nm. Auto Cutoff 435 nm and 515 nm, PMT sensitivity high, 6 reads per well. Inhibition of JAK activity is calculated as the percent phosphorylation of substrate in the presence of inhibitor compared to the percent phosphorylation of substrate in the absence of inhibitor. IC50's were derived using Xlfit 4.3 (IDBS, UK), 4 parameter logistic model 205: Y=(A+((B−A)/(1+((C/x)^D)))).

JAK2 = target: T3, JAK2 (Homo sapiens, UniProt O60674); test: as above; details: catalytic domain recombinant kinase, Tyr6 peptide
T3 construct: 5 μl of catalytic domain recombinant Kinase enzyme+Tyr peptide substrate (Invitrogen, CA); purchased Invitrogen
Experimental: as §1, §2

JAK3 = target: T4, JAK3 (Homo sapiens, UniProt P52333); test: as above; details: catalytic domain recombinant kinase, Tyr6 peptide
T4 construct: 5 μl of catalytic domain recombinant Kinase enzyme+Tyr peptide substrate (Invitrogen, CA); purchased Invitrogen
Experimental: as §1, §2

T3 sequence (O60674 849-1124 limits assumed): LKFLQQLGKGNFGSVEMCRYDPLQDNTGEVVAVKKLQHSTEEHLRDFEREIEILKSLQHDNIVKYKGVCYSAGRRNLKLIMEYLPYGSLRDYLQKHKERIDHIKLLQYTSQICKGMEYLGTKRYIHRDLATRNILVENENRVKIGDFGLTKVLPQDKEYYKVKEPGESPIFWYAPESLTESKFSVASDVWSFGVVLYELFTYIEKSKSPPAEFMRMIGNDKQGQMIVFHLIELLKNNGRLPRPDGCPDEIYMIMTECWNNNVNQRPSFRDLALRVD
T2 sequence (P23458 875-1153 limits assumed): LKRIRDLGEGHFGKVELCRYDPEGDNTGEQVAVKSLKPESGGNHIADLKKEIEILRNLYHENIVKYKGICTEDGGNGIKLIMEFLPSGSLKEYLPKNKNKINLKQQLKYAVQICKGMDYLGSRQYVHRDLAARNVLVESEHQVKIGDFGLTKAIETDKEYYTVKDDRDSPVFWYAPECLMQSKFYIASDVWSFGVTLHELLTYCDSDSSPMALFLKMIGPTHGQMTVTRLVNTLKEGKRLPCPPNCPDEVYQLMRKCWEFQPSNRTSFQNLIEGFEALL
T4 sequence (P52333 822-1111 limits assumed): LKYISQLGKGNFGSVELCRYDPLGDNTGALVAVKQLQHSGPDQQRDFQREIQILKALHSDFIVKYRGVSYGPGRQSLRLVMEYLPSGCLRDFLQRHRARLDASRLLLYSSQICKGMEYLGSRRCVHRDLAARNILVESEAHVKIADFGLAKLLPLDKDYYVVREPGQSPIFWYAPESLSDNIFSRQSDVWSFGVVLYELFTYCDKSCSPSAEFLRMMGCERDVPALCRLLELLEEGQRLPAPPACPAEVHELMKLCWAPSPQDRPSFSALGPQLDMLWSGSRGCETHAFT

SMILES | IC50 [1] | JAK1 IC50 potency class (JAK1) | JAK2 IC50 potency class (JAK2) | JAK3 IC50 potency class (JAK3) | pIC50 (JAK1) | pIC50 [1] | pIC50 (JAK2; read-out: JAK2 IC50 % Inhibition) | pIC50 (JAK3; read-out: JAK3 IC50 % Inhibition)
CCS(=O)(=O)N1CCN(c2ccc(Nc3ncc(C(N)=O)c(NC4CC4)n3)cc2F)CC1 [Compound 42, 4-(cyclopropylamino)-2-((4-(4-(ethylsulfonyl)piperazin-1-yl)-3-fluorophenyl)amino)pyrimidine-5-carboxamide] | +++ (0.10 uM<IC50<0.01 uM) | +++ (0.10 uM<IC50<0.01 uM) | ++++ (0.01 uM<IC50<0.001 uM) | ++++ (0.01 uM<IC50<0.001 uM) | – | – | – | –
NC(=O)c1cnc(Nc2ccc(C3CCN(c4cccnc4)CC3)cc2)nc1NC1CC1 [Compound 17, 4-(cyclopropylamino)-2-((4-(1-(pyridin-3-yl)piperidin-4-yl)phenyl)amino)pyrimidine-5-carboxamide] | ++ (1.0 uM<IC50<0.10 uM) | +++ (0.10 uM<IC50<0.01 uM) | +++ (0.10 uM<IC50<0.01 uM) | +++ (0.10 uM<IC50<0.01 uM) | – | – | – | –
NC(=O)c1cnc(Nc2ccc(N3CCOCC3)c(F)c2)nc1NC1CC1 [Compound 54, 4-(cyclopropylamino)-2-((3-fluoro-4-morpholinophenyl)amino)pyrimidine-5-carboxamide] | +++ (0.10 uM<IC50<0.01 uM) | +++ (0.10 uM<IC50<0.01 uM) | ++++ (0.01 uM<IC50<0.001 uM) | ++++ (0.01 uM<IC50<0.001 uM) | – | – | – | –
CCS(=O)(=O)N1CCN(c2ccc(Nc3ncc(C(N)=O)c(NC4CC4)n3)cc2Cl)CC1 [Compound 43, 2-((3-chloro-4-(4-(ethylsulfonyl)piperazin-1-yl)phenyl)amino)-4-(cyclopropylamino)pyrimidine-5-carboxamide] | +++ (0.10 uM<IC50<0.01 uM) | ++ (1.0 uM<IC50<0.10 uM) | +++ (0.10 uM<IC50<0.01 uM) | +++ (0.10 uM<IC50<0.01 uM) | – | – | – | –
NC(=O)c1cnc(Nc2ccc(C3CCN(C4CCOCC4)CC3)cc2)nc1NC1CC1 [Compound 14, 4-(cyclopropylamino)-2-((4-(1-(tetrahydro-2H-pyran-4-yl)piperidin-4-yl)phenyl)amino)pyrimidine-5-carboxamide] | +++ (0.10 uM<IC50<0.01 uM) | +++ (0.10 uM<IC50<0.01 uM) | ++++ (0.01 uM<IC50<0.001 uM) | ++++ (0.01 uM<IC50<0.001 uM) | – | – | – | –
CCS(=O)(=O)N1CCN(c2c(F)cc(Nc3ncc(C(N)=O)c(NC4CC4)n3)cc2F)CC1 [Compound 50, 4-(cyclopropylamino)-2-((4-(4-(ethylsulfonyl)piperazin-1-yl)-3,5-difluorophenyl)amino)pyrimidine-5-carboxamide] | ++ (1.0 uM<IC50<0.10 uM) | – | ++ (1.0 uM<IC50<0.10 uM) | ++ (1.0 uM<IC50<0.10 uM) | < 6.00 | – | – | –
CCS(=O)(=O)N1CCN(c2ccc(Nc3ncc(C(N)=O)c(NC4CC4)n3)nc2)CC1 [Compound 67, 4-(cyclopropylamino)-2-((5-(4-(ethylsulfonyl)piperazin-1-yl)pyridin-2-yl)amino)pyrimidine-5-carboxamide] | – | ++ (1.0 uM<IC50<0.10 uM) | ++ (1.0 uM<IC50<0.10 uM) | ++ (1.0 uM<IC50<0.10 uM) | – | < 6.00 | – | –
CCN1CCC(c2ccc(Nc3ncc(C(N)=O)c(NC4CC4)n3)cc2)CC1 [Compound 15, 4-(cyclopropylamino)-2-((4-(1-ethylpiperidin-4-yl)phenyl)amino)pyrimidine-5-carboxamide] | +++ (0.10 uM<IC50<0.01 uM) | +++ (0.10 uM<IC50<0.01 uM) | ++++ (0.01 uM<IC50<0.001 uM) | ++++ (0.01 uM<IC50<0.001 uM) | – | – | – | –
NC(=O)c1cnc(Nc2ccc(C3CCNCC3)cc2)nc1NC1CC1 [Compound 55, 4-(cyclopropylamino)-2-((4-(piperidin-4-yl)phenyl)amino)pyrimidine-5-carboxamide] | +++ (0.10 uM<IC50<0.01 uM) | +++ (0.10 uM<IC50<0.01 uM) | ++++ (0.01 uM<IC50<0.001 uM) | ++++ (0.01 uM<IC50<0.001 uM) | – | – | – | –
NC(=O)c1cnc(Nc2ccc(C3CCN(C(=O)N4CCCC4)CC3)cc2)nc1NC1CC1 [Compound 13, 4-(cyclopropylamino)-2-((4-(1-(pyrrolidine-1-carbonyl)piperidin-4-yl)phenyl)amino)pyrimidine-5-carboxamide] | ++ (1.0 uM<IC50<0.10 uM) | +++ (0.10 uM<IC50<0.01 uM) | +++ (0.10 uM<IC50<0.01 uM) | ++++ (0.01 uM<IC50<0.001 uM) | – | – | – | –
NC(=O)c1cnc(NC2CC2)cc1Nc1ccc(C2CCNCC2)cc1 [Compound 68, 6-(cyclopropylamino)-4-((4-(piperidin-4-yl)phenyl)amino)nicotinamide] | – | – | – | – | < 6.00 | < 6.00 | < 6.00 | < 6.00
CN(C)C(=O)C1CCN(c2ccc(Nc3ncc(C(N)=O)c(NC4CC4)n3)cc2Cl)CC1 [Compound 53, 2-((3-chloro-4-(4-(dimethylcarbamoyl)piperidin-1-yl)phenyl)amino)-4-(cyclopropylamino)pyrimidine-5-carboxamide] | +++ (0.10 uM<IC50<0.01 uM) | +++ (0.10 uM<IC50<0.01 uM) | ++++ (0.01 uM<IC50<0.001 uM) | ++++ (0.01 uM<IC50<0.001 uM) | – | – | – | –
CC(C)c1ccc(Nc2ncc(C(N)=O)c(NC3CC3)n2)cc1 [Compound 59, 4-(cyclopropylamino)-2-((4-isopropylphenyl)amino)pyrimidine-5-carboxamide] | +++ (0.10 uM<IC50<0.01 uM) | ++ (1.0 uM<IC50<0.10 uM) | ++ (1.0 uM<IC50<0.10 uM) | +++ (0.10 uM<IC50<0.01 uM) | – | – | – | –
